This test deals with T1, human KSP motor domain (KSP(367H)) (Homo sapiens, UniProt P52732).
T1 construct: were used to amplify the motor domain and the neck linker region; made in house; host or cells: E. coli BL21 (DE3), vector pRSETa
T1 sequence (P52732 18-359 limits assumed): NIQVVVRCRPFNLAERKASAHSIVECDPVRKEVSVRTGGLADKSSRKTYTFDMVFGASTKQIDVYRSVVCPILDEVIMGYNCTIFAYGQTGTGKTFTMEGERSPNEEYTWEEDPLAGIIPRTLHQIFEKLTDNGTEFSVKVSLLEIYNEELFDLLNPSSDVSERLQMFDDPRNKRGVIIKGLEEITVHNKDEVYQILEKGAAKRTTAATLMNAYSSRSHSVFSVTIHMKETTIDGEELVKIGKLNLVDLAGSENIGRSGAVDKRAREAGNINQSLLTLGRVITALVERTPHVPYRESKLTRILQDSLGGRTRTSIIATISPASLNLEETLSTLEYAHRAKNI
Description: Kinesin ATPase in vitro assay. Type of test: biochemical. The settings on record: KSP motor domain with microtubules, 1 mM ATP, 23° C.; free phosphate by quinaldine red/ammonium molybdate. The text has this: I. Kinesin ATPase In Vitro Assay
Cloning and Expression of Human Poly-Histidine Tagged KSP Motor Domain (KSP(367H))
Plasmids for the expression of the human KSP motor domain construct were cloned by PCR using a pBluescript full length human KSP construct (Blangy et al., Cell, vol. 83, pp 1159-1169, 1995) as a template. The N-terminal primer 5′-[…] (SEQ. ID. NO.: 1) and the C-terminal primer 5′-[…] […] (SEQ. ID. NO.: 2) were used to amplify the motor domain and the neck linker region. The PCR products were digested with AseI and XhoI, ligated into the NdeI/XhoI digestion product of pRSETa (Invitrogen) and transformed into E. coli BL21 (DE3).
Cells were grown at 37° C. to an OD600 of 0.5. […]
The kinesin motor domain is incubated with microtubules, 1 mM ATP (1:1 MgCl2: Na-ATP), and compound at 23° C. in buffer containing 80 mM K-HEPES (pH 7.0), 1 mM EGTA, 1 mM DTT, 1 mM MgCl2, and 50 mM KCl. […] Free phosphate from the ATP hydrolysis reaction is measured via a quinaldine red/ammonium molybdate assay by adding 150 μl of quench C buffer containing a 2:1 ratio of quench A:quench B. Quench A contains 0.1 mg/ml quinaldine red and 0.14% polyvinyl alcohol; quench B contains 12.3 mM ammonium molybdate tetrahydrate in 1.15 M sulfuric acid. The reaction is incubated for 10 minutes at 23° C., and the absorbance of the phospho-molybdate complex is measured at […].

As usually defined, the IC50 is the concentration at which inhibition is half-maximal. A higher IC50 goes with weaker potency in that assay.

`CN(C(=O)N1CC(c2cc(F)ccc2F)=C[C@@]1(CO)c1ccccc1)[C@H]1CCN(CCC[Si](C)(C)C)C[C@H]1F` [Compound 11-1, (2S)-4-(2,5-difluorophenyl)-N-{(3R,4S)-3-fluoro-1-[3-(trimethylsilyl)propyl]piperidin-4-yl}-2-(hydroxymethyl)-N-methyl-2-phenyl-2,5-dihydro-1H-pyrrole-1-carboxamide] yielded an IC50 of at most 50 µM.

The values are drawn from US20080207693A1, “Mitotic Kinesin Inhibitors” (priority 2005, published 2008).
